The results in this text go back to patent US20260049085A1, “CYCLIC COMPOUNDS AND METHODS OF USING SAME” (SCHRÖDINGER, INC., priority 2022, published 2026).

Usually IC50 stands for the concentration that inhibits the measured activity by half. The low end stands for greater potency in that assay, the high end for weaker potency in that assay.

The assay addresses T1, full-length MALT1 protein His-MALT1(1-824) (Homo sapiens, UniProt Q9UDY8).
T1 construct: full-length MALT1 protein His-MALT1(1-824); His (N); made in house; host or cells: baculovirus-infected insect cells
T1 sequence (Q9UDY8 1-824): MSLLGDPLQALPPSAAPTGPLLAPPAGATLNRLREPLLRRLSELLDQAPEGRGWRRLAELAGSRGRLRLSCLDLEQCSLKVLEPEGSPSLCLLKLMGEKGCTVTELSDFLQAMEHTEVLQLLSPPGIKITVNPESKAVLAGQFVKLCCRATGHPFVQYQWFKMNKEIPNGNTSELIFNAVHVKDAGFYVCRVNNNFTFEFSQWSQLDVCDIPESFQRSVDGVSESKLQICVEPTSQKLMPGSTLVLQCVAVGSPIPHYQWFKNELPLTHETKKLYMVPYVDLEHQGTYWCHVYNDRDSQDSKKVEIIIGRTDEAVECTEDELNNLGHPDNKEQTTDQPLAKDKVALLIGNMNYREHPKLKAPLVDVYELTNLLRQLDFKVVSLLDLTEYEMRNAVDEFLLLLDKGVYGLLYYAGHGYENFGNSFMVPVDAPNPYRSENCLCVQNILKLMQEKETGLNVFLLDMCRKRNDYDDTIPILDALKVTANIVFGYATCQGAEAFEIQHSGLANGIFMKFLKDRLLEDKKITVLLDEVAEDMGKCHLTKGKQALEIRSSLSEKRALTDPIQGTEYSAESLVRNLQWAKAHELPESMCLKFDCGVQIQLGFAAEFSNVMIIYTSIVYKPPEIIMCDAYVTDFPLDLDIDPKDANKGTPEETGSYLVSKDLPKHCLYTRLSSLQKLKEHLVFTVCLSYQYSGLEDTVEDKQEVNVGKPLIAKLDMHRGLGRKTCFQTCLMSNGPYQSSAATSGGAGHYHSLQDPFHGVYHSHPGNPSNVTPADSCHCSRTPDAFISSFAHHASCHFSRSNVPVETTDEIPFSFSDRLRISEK
As to the kind of experiment: MALT1 protease assay (Ac-LRSR-AMC tetrapeptide substrate, fluorescence). Format: biochemical. As to conditions: 1 nM MALT1, 25 μM Ac-LRSR-AMC, 2 h pre-incubation, 8 hr incubation at RT. An outline of the steps: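 Full-length His-MALT1(1-824) from baculovirus-infected insect cells (1 nM) was pre-incubated 2 h at RT with compounds (0.1% DMSO), then 25 μM Ac-LRSR-AMC added in 50 mM Tris pH 7.5, 600 mM sodium citrate, 1 mM DTT, 1 mM EDTA, 0.05% BSA. Fluorescence (ex 355/em 460 nm) read after 8 h at RT; IC50 by non-linear regression of % remaining activity.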

Structures are written as SMILES.

Molecule `Cn1ccc([C@@]2(C)C[C@@H](C(=O)Nc3cnc(-n4nccn4)c(C(F)(F)F)c3)c3cnc4cc(F)nn4c32)n1` (single isomer, unassigned) [Example 147] displayed an IC50 of 100 to 1000 nM.

`C[C@@]1(c2cnn(C(F)F)c2)C[C@@H](C(=O)Nc2cnc(-c3ncccn3)c(C(F)(F)F)c2)c2cnc3cc(F)nn3c21` (single isomer, unassigned) [Example 149] came in with an IC50 not below 1000 nM. The value for `C[C@@]1(c2cnn(C(F)F)c2)C[C@H](C(=O)Nc2cnc(-c3ncccn3)c(C(F)(F)F)c2)c2cnc3cc(F)nn3c21` (single isomer, unassigned) [Example 150] was 100 to 1000 nM; that for `C[C@]1(c2cnn(C(F)F)c2)C[C@@H](C(=O)Nc2cnc(-c3ncccn3)c(C(F)(F)F)c2)c2cnc3cc(F)nn3c21` (single isomer, unassigned) [Example 151] was 100 to 1000 nM.

The molecule `C[C@]1(c2ccn(C3CC3)n2)C[C@H](C(=O)Nc2cnc(-n3nccn3)c(Cl)c2)c2cnc3cc(F)nn3c21` (single isomer, unassigned) [Example 152] came in with an IC50 of less than 10 nM.

Consider `C[C@@]1(c2ccn(C3CC3)n2)C[C@@H](C(=O)Nc2cnc(-n3nccn3)c(Cl)c2)c2cnc3cc(F)nn3c21` (single isomer, unassigned) [Example 153], for which the IC50 was not below 1000 nM.

For the molecule `C[C@@]1(c2ccn(C3CC3)n2)C[C@H](C(=O)Nc2cnc(-n3nccn3)c(Cl)c2)c2cnc3cc(F)nn3c21` (single isomer, unassigned) [Example 154], the IC50 lay in the range of 100 to 1000 nM. The value for `C[C@]1(c2ccn(C3CC3)n2)C[C@@H](C(=O)Nc2cnc(-n3nccn3)c(Cl)c2)c2cnc3cc(F)nn3c21` (single isomer, unassigned) [Example 155] was not below 1000 nM; that for `C[C@]1(c2cnn(C(F)F)c2)C[C@H](C(=O)Nc2cnc(-c3ncncc3F)c(Cl)c2)c2cnc3cc(F)nn3c21` (single isomer, unassigned) [Example 156] was 10 to 100 nM; that for `C[C@@]1(c2cnn(C(F)F)c2)C[C@@H](C(=O)Nc2cnc(-c3ncncc3F)c(Cl)c2)c2cnc3cc(F)nn3c21` (single isomer, unassigned) [Example 157] was not below 1000 nM.

In the case of `CC1(n2ccc([C@@]3(C)C[C@H](C(=O)Nc4cnc(-c5ncccn5)c(C(F)(F)F)c4)c4cnc5cc(F)nn5c43)n2)CC1` (single isomer, unassigned) [Example 158], the half-inhibitory concentration (IC50) is 10 to 100 nM. As to `CC1(n2ccc([C@]3(C)C[C@@H](C(=O)Nc4cnc(-c5ncccn5)c(C(F)(F)F)c4)c4cnc5cc(F)nn5c43)n2)CC1` (single isomer, unassigned) [Example 159], the IC50 is not below 1000 nM. The molecule `CC1(n2ccc([C@]3(C)C[C@H](C(=O)Nc4cnc(-c5ncccn5)c(C(F)(F)F)c4)c4cnc5cc(F)nn5c43)n2)CC1` (single isomer, unassigned) [Example 160] gave an IC50 of 100 to 1000 nM. To `CC1(n2ccc([C@@]3(C)C[C@@H](C(=O)Nc4cnc(-c5ncccn5)c(C(F)(F)F)c4)c4cnc5cc(F)nn5c43)n2)CC1` (single isomer, unassigned) [Example 161] belongs not below 1000 nM; to `CC1(c2ccn(C(F)F)n2)CC(C(=O)Nc2cnc(-c3cccnn3)c(C(F)(F)F)c2)c2cnc3cc(F)nn3c21` (single isomer, unassigned) [Example 162], 10 to 100 nM; to `CC1(c2ccn(C(F)F)n2)CC(C(=O)Nc2cnc(-c3cccnn3)c(C(F)(F)F)c2)c2cnc3cc(F)nn3c21` (single isomer, unassigned) [Example 163], not below 1000 nM. `CC(F)(F)n1ccc([C@@]2(C)C[C@H](C(=O)Nc3cnc(-c4ncccn4)c(C(F)(F)F)c3)c3cnc4cc(F)nn4c32)n1` (single isomer, unassigned) [Example 164, (trans)-8-(1-(1,1-difluoroethyl)-1H-pyrazol-3-yl)-2-fluoro-8-methyl-N-(6-(pyrimidin-2-yl)-5-(trifluoromethyl)pyridin-3-yl)-7,8-dihydro-6H-cyclopenta[e]pyrazolo[1,5-a]pyrimidine-6-carboxamide] displayed an IC50 of less than 10 nM. To `CC(F)(F)n1ccc([C@]2(C)C[C@@H](C(=O)Nc3cnc(-c4ncccn4)c(C(F)(F)F)c3)c3cnc4cc(F)nn4c32)n1` (single isomer, unassigned) [Example 165, (trans)-8-(1-(1,1-difluoroethyl)-1H-pyrazol-3-yl)-2-fluoro-8-methyl-N-(6-(pyrimidin-2-yl)-5-(trifluoromethyl)pyridin-3-yl)-7,8-dihydro-6H-cyclopenta[e]pyrazolo[1,5-a]pyrimidine-6-carboxamide] belongs not below 1000 nM; to `CC(F)(F)n1ccc([C@]2(C)C[C@H](C(=O)Nc3cnc(-c4ncccn4)c(C(F)(F)F)c3)c3cnc4cc(F)nn4c32)n1` (single isomer, unassigned) [Example 166, (cis)-8-(1-(1,1-difluoroethyl)-1H-pyrazol-3-yl)-2-fluoro-8-methyl-N-(6-(pyrimidin-2-yl)-5-(trifluoromethyl)pyridin-3-yl)-7,8-dihydro-6H-cyclopenta[e]pyrazolo[1,5-a]pyrimidine-6-carboxamide], 100 to 1000 nM; to `CC(F)(F)n1ccc([C@@]2(C)C[C@@H](C(=O)Nc3cnc(-c4ncccn4)c(C(F)(F)F)c3)c3cnc4cc(F)nn4c32)n1` (single isomer, unassigned) [Example 167, (cis)-8-(1-(1,1-difluoroethyl)-1H-pyrazol-3-yl)-2-fluoro-8-methyl-N-(6-(pyrimidin-2-yl)-5-(trifluoromethyl)pyridin-3-yl)-7,8-dihydro-6H-cyclopenta[e]pyrazolo[1,5-a]pyrimidine-6-carboxamide], 100 to 1000 nM.

Molecule `CC(F)(F)n1ccc([C@@]2(C)C[C@H](C(=O)Nc3cnc(-c4ncccn4)c(Cl)c3)c3cnc4cc(F)nn4c32)n1` (single isomer, unassigned) [Example 168] yielded an IC50 of 10 to 100 nM. The value for `CC(F)(F)n1ccc([C@]2(C)C[C@@H](C(=O)Nc3cnc(-c4ncccn4)c(Cl)c3)c3cnc4cc(F)nn4c32)n1` (single isomer, unassigned) [Example 169] was not below 1000 nM; that for `C[C@]1(c2ccn(C(F)F)n2)C[C@H](C(=O)Nc2cnc(-c3ncccn3)c(C(F)(F)F)c2)c2cnc3cc(Cl)nn3c21` (single isomer, unassigned) [Example 171] was less than 10 nM; that for `C[C@@]1(c2ccn(C(F)F)n2)C[C@@H](C(=O)Nc2cnc(-c3ncccn3)c(C(F)(F)F)c2)c2cnc3cc(Cl)nn3c21` (single isomer, unassigned) [Example 172] was not below 1000 nM.

Molecule `C[C@@]1(c2ccn(C(F)F)n2)C[C@H](C(=O)Nc2cnc(-c3ncccn3)c(C(F)(F)F)c2)c2cnc3cc(Cl)nn3c21` (single isomer, unassigned) [Example 173] came in with an IC50 of 10 to 100 nM. The value for `C[C@]1(c2ccn(C(F)F)n2)C[C@@H](C(=O)Nc2cnc(-c3ncccn3)c(C(F)(F)F)c2)c2cnc3cc(Cl)nn3c21` (single isomer, unassigned) [Example 174] was 100 to 1000 nM; that for `C[C@]1(c2cn(C(F)F)nn2)C[C@H](C(=O)Nc2cnc(-n3nccn3)c(Cl)c2)c2cnc3cc(F)nn3c21` (single isomer, unassigned) [Example 175] was 10 to 100 nM.

In the case of `C[C@@]1(c2cn(C(F)F)nn2)C[C@@H](C(=O)Nc2cnc(-n3nccn3)c(Cl)c2)c2cnc3cc(F)nn3c21` (single isomer, unassigned) [Example 176], the IC50 is not below 1000 nM.
